{"source": "patent US20160084824A1", "about": "“DRUG DISCOVERY METHODS INVOLVING A PRECLNICAL, IN VITRO ISOLATED GASTROINTESTINAL EPITHELIAL STEM CELL-LIKE PROGENITOR CELL SYSTEM” (AlfaGene Bioscience, Inc., priority 2008, published 2016)", "key": {"[1]": {"test_system": "IL-8 production by HIPEC cells", "test": "IL-8 production by HIPECs, ELISA", "format": "cell-based, human", "conditions": "for IL-8 production: 5-ASA 1-10 μg/ml in culture medium", "procedure": "Human gastrointestinal epithelial stem cell-like progenitor cells were isolated from a normal segment of the large intestine and a segment of the large intestine in a diseased state (such as a segment having ulcerative colitis). Epithelial monolayers were grown from these progenitor crypt cells on the appropriate BSME as described above. The effects of 5-ASA on spontaneous, LPS, or IFN-γ stimulated IL-8 production were assessed on HIPEC cells cultured in the presence or absence of either LPS or IFN-γ and 5-ASA (1-10 μg/ml). The level of IL-8 production was measured by ELISA."}, "[2]": {"test_system": "malignant colonic adenocarcinoma cell line (HT29)", "test": "Cellular toxicity of SN-38, MTT viability assay, HT29", "format": "cell-based, human", "conditions": "HT29 cells; increasing amounts of SN-38", "procedure": "(§1) Briefly, HGISC-derived primary epithelial cell lines (A2J1 and SOJ2) and the malignant colonic adenocarcinoma cell line (HT29) were cultured, as described above in Examples 1A and 1B in medium containing different cytotoxic levels of the irinotecan metabolite 7-ethyl-10-hydroxy-20(S)-camptothecin (SN-38). […] Each cell culture was assessed for viability utilizing the MIT assay.\n(§2) Yellow MTT (3-(4,5-Dimethylthiazol-2-yl)-2,5-diphenyltetrazolium bromide, a tetrazole) is reduced to purple formazan in living cells. A solubilization solution (usually either dimethyl sulfoxide, an acidified ethanol solution, or a solution of the detergent sodium dodecyl sulfate in diluted hydrochloric acid) is added to dissolve the insoluble purple formazan product into a colored solution. The absorbance of this colored solution may be quantified by measuring at a certain wavelength (usually between 500 and 600 nm) using a spectrophotometer. The absorption maximum is dependent on the solvent employed. The MTT assay may be used to determine cytotoxicity of materials, since those materials that result in cell toxicity, and therefore metabolic dysfunction, yield decreased performance in the assay."}, "[3]": {"test_system": "HGISC-derived primary epithelial cell line SOJ2", "test": "Cellular toxicity of SN-38, MTT viability assay, SOJ2", "format": "cell-based, human", "conditions": "SOJ2 cells; increasing amounts of SN-38", "procedure": "as §1, §2"}, "[4]": {"test_system": "HGISC-derived primary epithelial cell line A2J1", "test": "Cellular toxicity of SN-38, MTT viability assay, A2J1", "format": "cell-based, human", "conditions": "A2J1 cells; increasing amounts of SN-38", "procedure": "as §1, §2"}, "[5]": {"conditions": "cited from earlier work"}, "[6]": {"test_system": "HIPEC monolayer derived from small intestinal segment (A2J1)"}}}
{"compound": "Nc1ccc(O)c(C(=O)O)c1", "note": "[5-ASA, 5-aminosalicyclic acid]", "values": [{"measurement": "IL-8 production", "setting": "[1]; IBS HIPECs", "value": "suppressed"}, {"measurement": "IL-8 production", "setting": "[1]; normal HIPECs", "value": "suppressed"}]}
{"compound": "CCc1c2c(nc3ccc(O)cc13)-c1cc3c(c(=O)n1C2)COC(=O)[C@]3(O)CC", "note": "[SN-38, 7-ethyl-10-hydroxy-20(S)-camptothecin]", "values": [{"measurement": "percent viability (MTT)", "setting": "[2]", "value": "unaffected"}, {"measurement": "percent viability (MTT)", "setting": "[3]", "value": "above 50%"}, {"measurement": "percent viability (MTT)", "setting": "[4]", "value": 0, "unit": "%"}]}
{"compound": "CC(C)NCC(O)COc1cccc2ccccc12", "note": "(stereo not drawn) [propranolol]", "values": [{"measurement": "absorption", "setting": "[5]; administered in vivo", "value": "absorbed rapidly and completely"}, {"measurement": "bioavailability", "setting": "[5]; due to extensive first-pass metabolism", "value": "variable bioavailability"}, {"measurement": "permeability through small intestine (A2J1) compared with large intestine (5A)", "setting": "[6]", "value": "greater than through large intestine (5A)"}]}
{"compound": "IFN-γ: cytokine produced predominantly by natural killer T cells as part of the innate immune response", "values": [{"measurement": "effect of stimulation on spontaneous IL-8 production", "setting": "[1]; HIPECs from normal controls and from patients with IBS", "value": "moderately enhanced"}]}
